Laboratory results as given in patent US11053204B2, “Pyrimidinyloxy benzene derivatives as herbicides” (FMC Corporation, priority 2015, dated 2021).

How the values were obtained:
Format in all cases: in vivo
[1] = tested on: sedge, umbrella (small-flower umbrella sedge, Cyperus difformis); experiment: Test B flooded paddy test, plant response rating; settings: 250 g ai/ha; Flood; scale of 0 to 100 where 0 is no effect and 100 is complete control; 13 to 15 days
In short: (§1)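 Flooded 3 cm over soil; compound into paddy water; depth kept constant. Greenhouse 13–15 d.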

[2] = tested on: barnyardgrass (Echinochloa crus-galli); experiment: Test B flooded paddy test, plant response rating; settings: 250 g ai/ha; Flood; scale of 0 to 100 where 0 is no effect and 100 is complete control; 13 to 15 days
In short: as §1

rice (Oryza sativa) = experiment: Test B flooded paddy test, plant response rating; settings: 250 g ai/ha; Flood; scale of 0 to 100 where 0 is no effect and 100 is complete control; 13 to 15 days
In short: as §1

[3] = tested on: ducksalad (Heteranthera limosa); experiment: Test B flooded paddy test, plant response rating; settings: 250 g ai/ha; Flood; scale of 0 to 100 where 0 is no effect and 100 is complete control; 13 to 15 days
In short: as §1

[4] = tested on: pigweed (Amaranthus retroflexus); experiment: Test A preemergence, visual injury rating; settings: for Pigweed plant response rating: 0 to 100 scale (0 no effect, 100 complete control)
In short: (§2)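 Compounds in non-phytotoxic solvent with surfactant applied as soil spray preemergence, or postemergence to plants 2-10 cm at one- to two-leaf stage, in loam/sand. After approximately 10 days in greenhouse, injury rated visually versus untreated controls, 0 (no effect) to 100 (complete control).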

[5] = tested on: Italian ryegrass (Lolium multiflorum); experiment: Test A preemergence, visual injury rating; settings: for Ryegrass, Italian plant response rating: 0 to 100 scale (0 no effect, 100 complete control)
In short: as §2

[6] = tested on: barnyardgrass (Echinochloa crus-galli); experiment: Test A preemergence, visual injury rating; settings: for Barnyardgrass plant response rating: 0 to 100 scale (0 no effect, 100 complete control)
In short: as §2

[7] = tested on: ragweed (common ragweed, Ambrosia elatior); experiment: Test A preemergence, visual injury rating; settings: for Ragweed plant response rating: 0 to 100 scale (0 no effect, 100 complete control)
In short: as §2

[8] = tested on: giant foxtail (Setaria faberii); experiment: Test A preemergence, visual injury rating; settings: for Foxtail, Giant plant response rating: 0 to 100 scale (0 no effect, 100 complete control)
In short: as §2

kochia (Kochia scoparia) [9] = experiment: Test A preemergence, visual injury rating; settings: for Kochia plant response rating: 0 to 100 scale (0 no effect, 100 complete control)
In short: as §2

[10] = tested on: pigweed (Amaranthus retroflexus); experiment: Test A postemergence, visual injury rating; settings: 0 is no effect, 100 is complete control
In short: as §2

corn (Zea mays) = experiment: Test A postemergence, visual injury rating; settings: 0 is no effect, 100 is complete control
In short: as §2

[11] = tested on: galium (catchweed bedstraw, Galium aparine); experiment: Test A postemergence, visual injury rating; settings: 0 is no effect, 100 is complete control
In short: as §2

[12] = tested on: blackgrass (Alopecurus myosuroides); experiment: Test A postemergence, visual injury rating; settings: 0 is no effect, 100 is complete control
In short: as §2

[13] = tested on: wheat (Triticum aestivum); experiment: Test A postemergence, visual injury rating; settings: 0 is no effect, 100 is complete control
In short: as §2

[14] = tested on: Italian ryegrass (Lolium multiflorum); experiment: Test A postemergence, visual injury rating; settings: 0 is no effect, 100 is complete control
In short: as §2

[15] = tested on: barnyardgrass (Echinochloa crus-galli); experiment: Test A postemergence, visual injury rating; settings: 0 is no effect, 100 is complete control
In short: as §2

[16] = tested on: ragweed (common ragweed, Ambrosia elatior); experiment: Test A postemergence, visual injury rating; settings: 0 is no effect, 100 is complete control
In short: as §2

[17] = tested on: giant foxtail (Setaria faberii); experiment: Test A postemergence, visual injury rating; settings: 0 is no effect, 100 is complete control
In short: as §2

kochia (Kochia scoparia) [18] = experiment: Test A postemergence, visual injury rating; settings: 0 is no effect, 100 is complete control
In short: as §2

[19] = 31 g ai/ha, 0 to 100 scale, 0 no effect, 100 complete control
[20] = 31 g ai/ha, 0 to 100 scale, approximately 10 days

FC(F)(F)C(F)(F)COCc1c(Br)cccc1Oc1ncc(Cl)cn1 [Compound 63]
Plant response rating, Sedge, Umbrella [1]: 100
Plant response rating, Barnyardgrass [2]: 45
Plant response rating, Rice (rice (Oryza sativa)): 25
Plant response rating, Ducksalad [3]: 100
Plant response rating, Pigweed [4, 19]: 0
Pigweed plant response rating ([4]; 125 g ai/ha): 90
Plant response rating, Ryegrass, Italian [5, 19]: 0
Ryegrass, Italian plant response rating ([5]; 125 g ai/ha): 0
Plant response rating, Barnyardgrass [6, 19]: 40
Barnyardgrass plant response rating ([6]; 125 g ai/ha): 100
Plant response rating, Ragweed [7, 19]: 0
Ragweed plant response rating ([7]; 125 g ai/ha): 0
Plant response rating, Foxtail, Giant [8, 19]: 10
Foxtail, Giant plant response rating ([8]; 125 g ai/ha): 90
Plant response rating, Kochia (kochia (Kochia scoparia) [9]; [19]): 0
Kochia plant response rating (kochia (Kochia scoparia) [9]; 125 g ai/ha): 0
Pigweed plant response rating [10, 20]: 20
Pigweed plant response rating (0 to 100 scale) ([10]; 125 g ai/ha): 60
Corn plant response rating (corn (Zea mays); [20]): 10
Corn plant response rating (0 to 100 scale) (corn (Zea mays); 125 g ai/ha): 30
Galium plant response rating [11, 20]: 0
Galium plant response rating (0 to 100 scale) ([11]; 125 g ai/ha): 30
Blackgrass plant response rating [12, 20]: 0
Blackgrass plant response rating (0 to 100 scale) ([12]; 125 g ai/ha): 0
Wheat plant response rating [13, 20]: 0
Wheat plant response rating (0 to 100 scale) ([13]; 125 g ai/ha): 0
Ryegrass, Italian plant response rating [14, 20]: 0
Ryegrass, Italian plant response rating (0 to 100 scale) ([14]; 125 g ai/ha): 0
Barnyardgrass plant response rating [15, 20]: 0
Barnyardgrass plant response rating (0 to 100 scale) ([15]; 125 g ai/ha): 10
Ragweed plant response rating [16, 20]: 0
Ragweed plant response rating (0 to 100 scale) ([16]; 125 g ai/ha): 0
Foxtail, Giant plant response rating [17, 20]: 0
Foxtail, Giant plant response rating (0 to 100 scale) ([17]; 125 g ai/ha): 30
Kochia plant response rating (kochia (Kochia scoparia) [18]; [20]): 20
Kochia plant response rating (0 to 100 scale) (kochia (Kochia scoparia) [18]; 125 g ai/ha): 50

N#Cc1ccc(Oc2ncc(Cl)cn2)c(C(=O)OCCC(F)(F)F)c1 [Compound 64]
Plant response rating, Sedge, Umbrella [1]: 0
Plant response rating, Barnyardgrass [2]: 0
Plant response rating, Rice (rice (Oryza sativa)): 0
Plant response rating, Ducksalad [3]: 0
Pigweed plant response rating ([4]; 125 g ai/ha): 0
Pigweed plant response rating ([4]; 500 g ai/ha): 0
Ryegrass, Italian plant response rating ([5]; 125 g ai/ha): 0
Ryegrass, Italian plant response rating ([5]; 500 g ai/ha): 0
Barnyardgrass plant response rating ([6]; 125 g ai/ha): 0
Barnyardgrass plant response rating ([6]; 500 g ai/ha): 0
Ragweed plant response rating ([7]; 125 g ai/ha): 0
Ragweed plant response rating ([7]; 500 g ai/ha): 0
Foxtail, Giant plant response rating ([8]; 125 g ai/ha): 0
Foxtail, Giant plant response rating ([8]; 500 g ai/ha): 0
Kochia plant response rating (kochia (Kochia scoparia) [9]; 125 g ai/ha): 0
Kochia plant response rating (kochia (Kochia scoparia) [9]; 500 g ai/ha): 0
Pigweed plant response rating (0 to 100 scale) ([10]; 125 g ai/ha): 0
Pigweed plant response rating (0 to 100 scale) ([10]; 500 g ai/ha): 0
Corn plant response rating (0 to 100 scale) (corn (Zea mays); 125 g ai/ha): 0
Corn plant response rating (0 to 100 scale) (corn (Zea mays); 500 g ai/ha): 0
Galium plant response rating (0 to 100 scale) ([11]; 125 g ai/ha): 0
Galium plant response rating (0 to 100 scale) ([11]; 500 g ai/ha): 0
Blackgrass plant response rating (0 to 100 scale) ([12]; 125 g ai/ha): 0
Blackgrass plant response rating (0 to 100 scale) ([12]; 500 g ai/ha): 0
Wheat plant response rating (0 to 100 scale) ([13]; 125 g ai/ha): 0
Wheat plant response rating (0 to 100 scale) ([13]; 500 g ai/ha): 0
Ryegrass, Italian plant response rating (0 to 100 scale) ([14]; 125 g ai/ha): 0
Ryegrass, Italian plant response rating (0 to 100 scale) ([14]; 500 g ai/ha): 0
Barnyardgrass plant response rating (0 to 100 scale) ([15]; 125 g ai/ha): 0
Barnyardgrass plant response rating (0 to 100 scale) ([15]; 500 g ai/ha): 0
Ragweed plant response rating (0 to 100 scale) ([16]; 125 g ai/ha): 0
Ragweed plant response rating (0 to 100 scale) ([16]; 500 g ai/ha): 0
Foxtail, Giant plant response rating (0 to 100 scale) ([17]; 125 g ai/ha): 0
Foxtail, Giant plant response rating (0 to 100 scale) ([17]; 500 g ai/ha): 0
Kochia plant response rating (0 to 100 scale) (kochia (Kochia scoparia) [18]; 125 g ai/ha): 0
Kochia plant response rating (0 to 100 scale) (kochia (Kochia scoparia) [18]; 500 g ai/ha): 0
